Patent publication US20170050957A1, “4-AMINO-6-(HETEROCYCLIC)PICOLINATES AND 6-AMINO-2-(HETEROCYCLIC)PYRIMIDINE-4-CARBOXYLATES AND THEIR USE AS HERBICIDES” (Dow AgroSciences LLC, priority 2013, published 2017)
Read-outs that look alike come from different tables or passages of the source.

Key:
[1] = system: Key Broadleaf Weed and Crop Species; experiment: Post-emergent Test II herbicidal activity (Table 15); type: in vivo; details: post-emergence, 336 h, 14 d; for pest or weed control at 35 g/ha: 35 g ai/ha; for pest or weed control at 70 g/ha: 70 g ai/ha; for pest or weed control at 140 g/ha: 140 g ai/ha
Method in brief: (§1)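 Post-emergence spray; seedlings 7-21 d old, 1st-2nd true leaf; 187 L/ha; serial rates 1×-1/16×; solvent blank controls; subirrigated; visual % injury at 14 d.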

[2] = system: Key Grass and Sedge Weeds as well as Grass Crops; experiment: Post-emergent Test II herbicidal activity (Table 16); type: in vivo; details: post-emergence, 336 h, 14 d; for pest or weed control at 35 g/ha: 35 g ai/ha; for pest or weed control at 70 g/ha: 70 g ai/ha; for pest or weed control at 140 g/ha: 140 g ai/ha
Method in brief: as §1

[3] = Abutilon theophrasti, velvetleaf (Abutilon theophrasti), read-out: Visual Growth Reduction (%) 14 Days After Application, ABUTH
[4] = Amaranthus retroflexus, redroot pigweed (Amaranthus retroflexus), read-out: Visual Growth Reduction (%) 14 Days After Application, AMARE
[5] = Brassica napus, oilseed rape, canola (Brassica napus), read-out: Visual Growth Reduction (%) 14 Days After Application, BRSNN
[6] = Chenopodium album, lambsquarters (Chenopodium album), read-out: Visual Growth Reduction (%) 14 Days After Application, CHEAL
[7] = Euphorbia heterophylla, wild poinsettia (Euphorbia heterophylla), read-out: Visual Growth Reduction (%) 14 Days After Application, EPHHL
[8] = Helianthus annuus, sunflower (Helianthus annuus), read-out: Visual Growth Reduction (%) 14 Days After Application, HELAN
[9] = Cyperus esculentus, yellow nutsedge (Cyperus esculentus), read-out: Visual Growth Reduction (%) 14 Days After Application, CYPES
[10] = Echinochloa crus-galli, barnyardgrass (Echinochloa crus-galli), read-out: Visual Growth Reduction (%) 14 Days After Application, ECHCG
[11] = Oryza sativa, rice (Oryza sativa), read-out: Visual Growth Reduction (%) 14 Days After Application, ORYSA
[12] = Setaria faberi, giant foxtail (Setaria faberi), read-out: Visual Growth Reduction (%) 14 Days After Application, SETFA
[13] = Triticum aestivum, wheat, spring (Triticum aestivum), read-out: Visual Growth Reduction (%) 14 Days After Application, TRZAS
[14] = Zea mays, maize, corn (Zea mays), read-out: Visual Growth Reduction (%) 14 Days After Application, ZEAMX

| Structure (SMILES) | pest or weed control at 35 g/ha [1, 3] [%] | pest or weed control at 70 g/ha [1, 3] [%] | pest or weed control at 140 g/ha [1, 3] [%] | pest or weed control at 35 g/ha [1, 4] [%] | pest or weed control at 70 g/ha [1, 4] [%] | pest or weed control at 140 g/ha [1, 4] [%] | pest or weed control at 35 g/ha [1, 5] [%] | pest or weed control at 70 g/ha [1, 5] [%] | pest or weed control at 140 g/ha [1, 5] [%] | pest or weed control at 35 g/ha [1, 6] [%] | pest or weed control at 70 g/ha [1, 6] [%] | pest or weed control at 140 g/ha [1, 6] [%] | pest or weed control at 35 g/ha [1, 7] [%] | pest or weed control at 70 g/ha [1, 7] [%] | pest or weed control at 140 g/ha [1, 7] [%] | pest or weed control at 35 g/ha [1, 8] [%] | pest or weed control at 70 g/ha [1, 8] [%] | pest or weed control at 140 g/ha [1, 8] [%] | pest or weed control at 35 g/ha [2, 9] [%] | pest or weed control at 70 g/ha [2, 9] [%] | further results |
| --- | --- | --- | --- | --- | --- | --- | --- | --- | --- | --- | --- | --- | --- | --- | --- | --- | --- | --- | --- | --- | --- |
| Cc1c(-c2ccc3cc[nH]c3c2)nc(C(=O)O)c(Cl)c1N [Compound 1.29] | 0 to 29 | 0 to 29 | 0 to 29 | 45 to 59 | 0 to 29 | 0 to 29 | 75 to 84 | 75 to 84 | 85 to 94 | 45 to 59 | 45 to 59 | 75 to 84 | 0 to 29 | 0 to 29 | 0 to 29 | 60 to 74 | 60 to 74 | 75 to 84 | 0 to 29 | 0 to 29 | pest or weed control at 140 g/ha [2, 9]: 30 to 44%; pest or weed control at 35 g/ha [2, 10]: 0 to 29%; pest or weed control at 70 g/ha [2, 10]: 0 to 29%; pest or weed control at 140 g/ha [2, 10]: 0 to 29%; pest or weed control at 35 g/ha [2, 11]: 0 to 29%; pest or weed control at 70 g/ha [2, 11]: 0 to 29%; pest or weed control at 140 g/ha [2, 11]: 0 to 29%; pest or weed control at 35 g/ha [2, 12]: 0 to 29%; pest or weed control at 70 g/ha [2, 12]: 0 to 29%; pest or weed control at 140 g/ha [2, 12]: 0 to 29%; pest or weed control at 35 g/ha [2, 13]: 0 to 29%; pest or weed control at 70 g/ha [2, 13]: 0 to 29%; pest or weed control at 140 g/ha [2, 13]: 0 to 29%; pest or weed control at 35 g/ha [2, 14]: 0 to 29%; pest or weed control at 70 g/ha [2, 14]: 0 to 29%; pest or weed control at 140 g/ha [2, 14]: 0 to 29%; melting point: 168 to 175 °C |
| COC(=O)c1nc(-c2ccc3cc[nH]c3c2)c(C)c(N)c1Cl [Compound 1.28] | 85 to 94 | 85 to 94 | 95 to 100 | 0 to 29 | 0 to 29 | 60 to 74 | 75 to 84 | 85 to 94 | 85 to 94 | 45 to 59 | 60 to 74 | 60 to 74 | 0 to 29 | 0 to 29 | 0 to 29 | 95 to 100 | 95 to 100 | 95 to 100 | 0 to 29 | 0 to 29 | pest or weed control at 140 g/ha [2, 9]: 0 to 29%; pest or weed control at 35 g/ha [2, 10]: 0 to 29%; pest or weed control at 70 g/ha [2, 10]: 0 to 29%; pest or weed control at 140 g/ha [2, 10]: 0 to 29%; pest or weed control at 35 g/ha [2, 11]: 0 to 29%; pest or weed control at 70 g/ha [2, 11]: 0 to 29%; pest or weed control at 140 g/ha [2, 11]: 0 to 29%; pest or weed control at 35 g/ha [2, 12]: 0 to 29%; pest or weed control at 70 g/ha [2, 12]: 0 to 29%; pest or weed control at 140 g/ha [2, 12]: 0 to 29%; pest or weed control at 35 g/ha [2, 13]: 0 to 29%; pest or weed control at 70 g/ha [2, 13]: 30 to 44%; pest or weed control at 140 g/ha [2, 13]: 30 to 44%; pest or weed control at 35 g/ha [2, 14]: 0 to 29%; pest or weed control at 70 g/ha [2, 14]: 0 to 29%; pest or weed control at 140 g/ha [2, 14]: 0 to 29%; melting point: 231 to 234 °C |
| COC(=O)c1nc(-c2ccc3cc[nH]c3c2F)nc(N)c1Cl [Compound 1.31] | 45 to 59 | 60 to 74 | 60 to 74 | 60 to 74 | 95 to 100 | 95 to 100 | 85 to 94 | 95 to 100 | 95 to 100 | 95 to 100 | 95 to 100 | 95 to 100 | 95 to 100 | 95 to 100 | 95 to 100 | 30 to 44 | 45 to 59 | 60 to 74 | 0 to 29 | 0 to 29 | pest or weed control at 140 g/ha [2, 9]: 0 to 29%; pest or weed control at 35 g/ha [2, 10]: 75 to 84%; pest or weed control at 70 g/ha [2, 10]: 75 to 84%; pest or weed control at 140 g/ha [2, 10]: 85 to 94%; pest or weed control at 35 g/ha [2, 11]: 0 to 29%; pest or weed control at 70 g/ha [2, 11]: 0 to 29%; pest or weed control at 140 g/ha [2, 11]: 0 to 29%; pest or weed control at 35 g/ha [2, 12]: 60 to 74%; pest or weed control at 70 g/ha [2, 12]: 75 to 84%; pest or weed control at 140 g/ha [2, 12]: 85 to 94%; pest or weed control at 35 g/ha [2, 13]: 75 to 84%; pest or weed control at 70 g/ha [2, 13]: 0 to 29%; pest or weed control at 140 g/ha [2, 13]: 30 to 44%; pest or weed control at 35 g/ha [2, 14]: 0 to 29%; pest or weed control at 70 g/ha [2, 14]: 0 to 29%; pest or weed control at 140 g/ha [2, 14]: 0 to 29%; melting point: 185 to 190 °C |
